According to patent publication US6372733B1, “Hexahydro-5-imino-1,4-1,4-thiazepine derivatives as inhibitors of nitric oxide synthases” (Merck & Co., Inc., priority 1995, dated 2002):
Structures can show the parent of a compound that is named as a salt. Where two headings read alike, the source gives them in different places.

Experiments:
Type in all cases: biochemical
iNOS = iNOS (Homo sapiens, UniProt P35228); experiment: Assay Protocol for NOS Activity: formation of L-[3H]Citrulline from L-[3H]Arginine, iNOS
Method: (§1) NOS activity is measured as the formation of L-[2,3,4,5-^3H]Citrulline from L-[2,3,4,5-^3H]Arginine. The incubation buffer (100 uL) contained; 100 mM TES, pH 7.5, 5 μM FAD, 5 μM FMN, 10 μM BH4, 0.5 mM NADPH, 0.5 mM DTT, 0.5 mg/mL BSA, 2 mM CaC12, 10 ug/mL calmodulin (bovine), 1 μM L-Arg, 0.2 uCi L-[2,3,4,5-^3H]Arg, and the inhibitor in aqueous DMSO (max. 5%). The reaction is initiated by addition of enzyme. Incubations are performed at room temperature for 30 minutes and stopped by the addition of an equal volume of quenching buffer consisting of 200 mM sodium citrate, pH 2.2, 0.02% sodium azide. Reaction products are separated by passing through a cation exchange resin and quantitated as cpm by scintillation counting.

ncNOS = ncNOS (Homo sapiens, UniProt P29475); experiment: Assay Protocol for NOS Activity: formation of L-[3H]Citrulline from L-[3H]Arginine, ncNOS
Method: as §1

ecNOS = ecNOS (Homo sapiens, UniProt P29474); experiment: Assay Protocol for NOS Activity: formation of L-[3H]Citrulline from L-[3H]Arginine, ecNOS
Method: as §1

[1] = 1 μM L-Arg, room temperature, 30 minutes, read-out: iNOS (IC50)
[2] = 1 μM L-Arg, room temperature, 30 minutes, read-out: ncNOS (IC50)
[3] = 1 μM L-Arg, room temperature, 30 minutes, read-out: ecNOS (IC50)

Row | Compound | IC50 (iNOS; [1]) [µM] | IC50 (ncNOS; [2]) [µM] | IC50 (ecNOS; [3]) [µM] | IC50 (iNOS) [µM] | IC50 (ncNOS) [µM] | IC50 (ecNOS) [µM]
1 | NC1=NCCNCC1 [Example 1, Hexahydro-5-imino-(1H-1,4-diazepine Dihydrochloride] | > 50 | > 50 | > 50 |  |  | 
2 | NC1=NCCSCC1 [Example 2, Hexahydro-5-imino-1,4-thiazepine Hydrochloride] | < 10 | < 10 | > 10 |  |  | 
3 | NC1=NCCOCC1 [Example 3, Hexahydro-5-imino-1,4-oxazepine Hydrochloride.] | < 50 | < 10 | < 50 |  |  | 
4 | CC1CC(N)=NCCS1 (stereo not drawn) [Example 6, Hexahydro-5-imino-7-methyl-1,4-thiazepine Hydrochloride] | < 10 | < 1 | < 10 |  |  | 
5 | CC1CN=C(N)CCS1 (stereo not drawn) [Example 7, Hexahydro-5-imino-2-methyl-1,4-thiazepine Hydrochloride] | < 10 | < 1 | < 10 |  |  | 
6 | CC(C)CC1CSCCC(N)=N1 (stereo not drawn) [Example 11, Hexahydro-5-imino-3-(2-methyl-propyl)-1,4-thiazepine Hydrochloride] | < 1 | < 10 | > 50 |  |  | 
7 | CC1CSCCN=C1N (stereo not drawn) [Example 12, Hexahydro-5-imino-6-methyl-1,4-thiazepine Hydrochloride] | > 50 | < 10 | < 50 |  |  | 
8 | CC1CSCCC(N)=N1 (stereo not drawn) [Example 13, Hexahydro-5-imino-3-methyl-1,4-thiazepine Hydrochloride] | < 1 | < 10 | < 10 |  |  | 
9 | CCC1CSCCC(N)=N1 (stereo not drawn) [Example 14, Hexahydro-5-imino-3-ethyl-1,4-thiazepine Hydrochloride] | < 1 | < 10 | < 50 |  |  | 
10 | CN1CCN=C(N)CC1 [Example 20, Hexahydro-5-imino-1-methyl-1H-1,4-diazepine Hydrochloride.] | < 50 | > 50 | > 50 |  |  | 

Second part, the compound after the results:

Row | IC50 (iNOS; [1]) [µM] | IC50 (ncNOS; [2]) [µM] | IC50 (ecNOS; [3]) [µM] | IC50 (iNOS) [µM] | IC50 (ncNOS) [µM] | IC50 (ecNOS) [µM] | Compound
11 | > 50 | > 50 | > 50 |  |  |  | N=C1CCS[C@H]2CCCC[C@@H]2N1 (racemic) [Example 17, (±)-trans-Decahydro-4-imino-benzo[b]-1,4-thiazepine Acetic Acid Salt]
12 |  |  |  | < 1 | < 10 | < 50 | CCCC1CSCCC(N)=N1 (stereo not drawn) [Example 4, Hexahydro-5-imino-3-propyl-1,4-thiazepine Hydrochloride]
13 | > 50 | > 50 | > 50 |  |  |  | CCCC1CSCCNC1=N (stereo not drawn) [Example 5, Hexahydro-5-imino-6-propyl-1,4-thiazepine Hydrochloride]
14 | > 50 | > 50 | > 50 |  |  |  | CC(C)=CCC1CSCCNC1=N (stereo not drawn) [Example 8, Hexahydro-5-imino-6-(3-methyl-2-n-butenyl)-1,4-thiazepine Hydrochloride]
15 | < 1 | < 50 | > 50 |  |  |  | CC(C)=CCC1CSCCC(=N)N1 (stereo not drawn) [Example 9, Hexahydro-5-imino-3-(3-methyl-2-n-butenyl)-1,4-thiazepine Hydrochloride]
16 | < 50 | > 50 | > 50 |  |  |  | CC(C)CC1CSCCNC1=N (stereo not drawn) [Example 10, Hexahydro-5-imino-6-(2-methyl-propyl)-1,4-thiazepine Hydrochloride]
17 | < 1 | < 10 | > 50 |  |  |  | CCCCC1CSCCC(N)=N1 (stereo not drawn) [Example 15, Hexahydro-5-imino-3-butyl-1,4-thiazepine. Hydrochloride]
18 | < 1 | < 10 | < 50 |  |  |  | C=C(C)CC1CSCCC(=N)N1 (stereo not drawn) [Example 16, Hexahydro-5-imino-3-(2-methyl-3-propenyl)-1,4-thiazepine Hydrochloride.]
19 |  |  |  | < 1 | < 1 | < 10 | CCC[C@H]1CSCCC(N)=N1 [Example 18, Hexahydro-5-imino-3(S)-propyl-1,4-thiazepine, Acetic Acid Salt]
20 |  |  |  | < 10 | < 10 | < 50 | CCC[C@@H]1CSCCC(=N)N1 [Example 19, Hexahydro-5-imino-3(R)-propyl-1,4-thiazepine Acetic Acid Salt]
